In patent US12642795B2, “MRGPRX2 antagonist for the treatment of pseudo allergic reactions” (The University of Hong Kong, priority 2021, dated 2026):

Assays:
[1] = target: T1, MRGPRX2 (Homo sapiens, UniProt Q96LB1); assay: MRGPRX2 activation assay (PRESTO-Tango assay); assay type: cell-based; conditions: MRGPRX2-Tango transfected HTLA cells, followed by EC90 concentration (10 μM) of C48/80
T1 construct: expressed in transfected cells; host or cells: HTLA cells
T1 sequence (Q96LB1 1-330): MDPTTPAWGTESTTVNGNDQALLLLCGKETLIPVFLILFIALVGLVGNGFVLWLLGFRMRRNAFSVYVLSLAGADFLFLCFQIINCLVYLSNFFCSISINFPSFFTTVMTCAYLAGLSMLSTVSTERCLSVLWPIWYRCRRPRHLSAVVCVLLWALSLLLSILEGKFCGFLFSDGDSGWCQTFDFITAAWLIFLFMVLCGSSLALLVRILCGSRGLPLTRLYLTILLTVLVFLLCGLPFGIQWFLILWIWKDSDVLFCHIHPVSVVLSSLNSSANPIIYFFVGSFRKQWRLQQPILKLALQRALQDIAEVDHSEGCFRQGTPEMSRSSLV
Description: On day 1 of the experiment, HTLA cells were seeded at 1×10^6 cells per 100 mm cell culture dish for transfection. On the following day (day 2), HTLA cells were transfected with Tango MRGPRX2 DNA using the Lipofectamine transfection reagent (Thermo Fischer Scientific). On day 3, Tango MRGPRX2 transfected cells were transferred into 96-well white clear-bottom cell culture plates at a density of 2×10^4 cells/well/80 μL (PerkinElmer Life Science).

[2] = system: C57/BL/6N mice; assay: In-vivo systemic anaphylaxis mice model (C48/80 induced); parameters: species or system mouse; conditions: 5 mg/kg intraperitoneally, C48/80 8 mg/kg intraperitoneally
Description: Animals (C57/BL/6N aged 6-8 weeks old, n=6-8/group) were transported to the procedure area the day before injections to minimize stress. The antagonists (GE0117, GE1109, or GE1111) or vehicle was injected intraperitoneally, and mice were kept in the cage for 30 minutes. After 30 minutes of saline (negative control), 8 mg/kg of C48/80 was injected intraperitoneally. The volume of intraperitoneal injection was 10 ml/kg body weight as per AAALAC guidelines. The injection site was swabbed with cotton soaked in 70% alcohol, and the mouse was placed in a separate cage as one mouse per cage. Body core temperature was measured before (basal) and after the injections with an IR non-contact thermometer for one hour. Also, mice were monitored for anaphylaxis symptoms/severity and scored from 0-5 for 1 h or until death following C48/80 injection, whichever was first. Briefly, the scoring system was followed as 0, no symptoms; 1, scratching and rubbing around the nose and head; 2, puffiness around the eyes and mouth, diarrhea, pilar erecti, reduced activity, and/or decreased activity with an increased respiratory rate; 3, wheezing, labored respiration, and cyanosis around the mouth and the tail; 4, no activity after prodding or tremor and convulsion; 5, death. The body core temperature and anaphylaxis score were plotted using Graph Pad Prism.

[3] = system: C57/BL/6N mice; assay: In-vivo local anaphylaxis/pseudo allergic mice model (C48/80 induced); parameters: species or system mouse; conditions: 5 mg/kg intraperitoneally, vs C48/80 mice; for increase in paw thickness: 15 min after C48/80 (30 μg/ml) in paw; for Evans blue dye extravasation: 15 min after C48/80 (30 μg/ml)
Description: Young adult male mice (C57/BL/6N aged 6-8 weeks old, n=6/group) were used to measure the local anaphylaxis activity by measuring Evans blue tissue extravasation in paw and ear tissue. The animal experiments were approved by the Committee on the Use of Live Animals in Teaching and Research (CULATR) (Animal ethical approval number CULATR 5125-19). Mice were anesthetized via intraperitoneal injection of ketamine and xylazine, and paw thickness was measure using a Vernier caliper. The antagonists (GE0117, GE1109, and GE1111) were injected at a dose of 5 mg/kg body weight via intraperitoneal injection followed by a tail vein injection of 50 μL 12.5% Evans blue in saline (irrespective of the bodyweight). After thirty minutes, C48/80 (10 μL of 30 μg/ml) was injected into one paw and ear, while saline was injected into the other paw and ear as a negative control. After fifteen minutes, the paw and ear tissue were photographed, and the paw thicknesses were measured again to calculate % increase in paw thickness. Mice were euthanized by cervical dislocation under anesthesia, and the collected paw and ear tissues were dried at 50° C. for 24 hours and weighed separately. Evans blue was extracted with formamide (500 μL/tissue) by incubating at 50° C. for 24 h. The supernatant was aliquoted into 96-well plates (200 μL/well, duplicate), and OD was measure at 595 nm using a Victor 4× plate reader (PerkinElmer). The paw edema/inflammation was measured as % increase in paw thickness=

[4] = system: Human LAD-2 MCs; assay: Intracellular Ca2+ flux assay (Fluo-4 NW); assay type: cell-based; conditions: LAD2 MCs; for efficacy in Ca2+ flux reduction at 12.5 μM, 25 μM and 50 μM: ****P<0.0001 vs C48/80; for reduction of C48/80 induced Ca2+ flux: C48/80 EC90 concentration
Description: The intracellular Ca^2+ flux was measured in human LAD-2 MCs by using the Fluo-4 NW calcium assay kit and the protocol according to the manufacturer (Molecular Probe, Invitrogen, USA). Briefly, LAD-2 cells were plated in a 96-well black well plate (SPL Life Sciences) at a density of 1×10^5 cells/well/40 μL in assay buffer and incubated for 1 h at 37° C. incubators. After 1 h, 40 μL of the 2× dye loading solution and antagonist or buffer was added to the cells (10 μL of 10× stock). […] After one hour of incubation, a graded concentration of agonist or buffer was added to the cells (10 μL of 10× stock). The fluorescence was measured at an excitation wavelength of 494 nm and an emission wavelength of 516 nm using Victor 4× plate reader (PerkinElmer) for 150 seconds. The ΔF was calculated by […] and plotted by using Graph Pad Prism.

[5] = system: mice ear tissue MCs; assay: Histological analysis of ear tissue (H&E, Toluidine blue; in-vivo MCs degranulation); parameters: species or system mouse; conditions: 5 mg/kg intraperitoneally, vs C48/80 treated group
Description: The mice were anesthetized with ketamine/xylazine and were injected with antagonists (GE0117, GE1109, and GE1111) at a dose of 5 mg/kg body weight intraperitoneally. After 30 minutes, C48/80 (10 μL of 30 μg/ml) and saline (as negative control) were injected into the ear. Fifteen minutes later, the mice were sacrificed, and the injection site of the ear was excised, washed with PBS, and fixed with 10% buffered formalin for 24 h. After 24 hours, the ear tissue was dehydrated in a graded concentration of ethanol (30%, 50% & 70% ethanol every 24 hours) at 4° C. Further, the tissue was processed in an automated tissue processor (Leica ASP300) and embedded into paraffin using Embedding Centre (Leica EG1150). The paraffin-embedded tissue was sectioned at […] size using a fully automatic Microtome (Leica RM2265). The tissue sections were subjected to H&E staining using an automated slide Stainer (Leica ST5020) using standard staining protocol. After staining, the slides were dried under a fume hood and mounted with DPX. For the MCs detection, the sectioned ear tissue was subjected to Toluidine blue O staining according to the available online protocol (http://www.ihcworld.com/_protocols/special_stains/toluidine_blue.htm). Images were captured under 10× and 20× magnification using a Nikon Eclipse Ni-U, upright microscope, and Nikon DS-Ri2 microscopic camera (Nikon, Tokyo, Japan).

SMILES | IC50 [1] [µM] | C48/80 induced body temperature change at 35 minutes [2] | C48/80 induced body temperature changes at 30 minutes [2] | increase in paw thickness [3] | Evans blue dye extravasation [3] | efficacy in Ca2+ flux reduction at 12.5 μM, 25 μM and 50 μM [4] | reduction of C48/80 induced Ca2+ flux [4] | percentage of degranulated MCs in ear tissue [5] | systemic anaphylaxis symptoms (score 0-5) ([2]; 1 h)
COC(=O)c1cc2cc(NC(N)=O)ccc2cc1-c1ccc2c3c(cccc13)C(=O)C=C2 [GE1109] | 7.14 | significantly reversed the body temperature change | reversed the C48/80 induced body temperature changes | significant (*P<0.05) antagonizing activity | significant (*P<0.05) antagonizing activity | higher efficacy at all three concentrations | significant concentration-dependent reduction | reduces the MCs degranulation | 
COC(=O)c1cc2cc(NC(N)=O)ccc2cc1-c1cc2c3c(c(O)ccc3c1)C(C)C(C=O)=C2 (centres unmarked) [GE1111] | 9.42 | significantly reversed the body temperature change | reversed the C48/80 induced body temperature changes | significantly (***P<0.001) attenuated | significantly (***P<0.001) attenuated | higher efficacy at all three concentrations | significant concentration-dependent reduction | reduces the MCs degranulation | rehabilitated the compound 48/80 induced hypothermia and severity of anaphylaxis symptoms
